How the values were obtained:
[1] = compound: C1=CC2=NC=CN=C2C=C1/C=C/3\C(=O)NC(=O)S3 + CC(=O)Nc1cccc(-n2c(=O)n(C3CC3)c(=O)c3c(Nc4ccc(I)cc4F)n(C)c(=O)c(C)c32)c1 [Trametinib] (partner 0.02 µM); assay: relative viability (nuclei count vs DMSO), 5 days (fraction); higher = more cells survive
Procedure, shortened: (§1)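 For relative viability, nuclei counts in treated wells were divided by those in vehicle wells. Lung cancer cell lines had been pin-tool dosed in 1536-well plates the day after seeding and cultured for 5 days, then fixed and stained in one step (final 0.05% Triton X-100, 1% formaldehyde, 1 ug/ml Hoechst) and imaged at 4×. Doses were one drug alone or a fixed anchor-drug dose plus five library-drug doses (not always all listed) in √10 steps, and values are duplicate-plate medians.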

BGJ398 + Dasatinib = compound: CCN1CCN(c2ccc(Nc3cc(N(C)C(=O)Nc4c(Cl)c(OC)cc(OC)c4Cl)ncn3)cc2)CC1 [BGJ398] + Cc1nc(Nc2ncc(C(=O)Nc3c(C)cccc3Cl)s2)cc(N2CCN(CCO)CC2)n1 [Dasatinib] (partner 0.075 µM); assay: as above
Procedure, shortened: as §1

Row | Cell Line | relative viability ([1]; first compound 0.02 µM) | relative viability ([1]; first compound 0.06325 µM) | relative viability ([1]; first compound 0.2 µM) | relative viability ([1]; first compound 0.6325 µM) | relative viability ([1]; first compound 2 µM) | relative viability (BGJ398 + Dasatinib; first compound 0.01 µM) | relative viability (BGJ398 + Dasatinib; first compound 0.03162 µM) | relative viability (BGJ398 + Dasatinib; first compound 0.1 µM) | relative viability (BGJ398 + Dasatinib; first compound 0.3162 µM) | relative viability (BGJ398 + Dasatinib; first compound 1 µM)
1 | NCI-H2126 | 0.481 | 0.591 | 0.538 | 0.533 | 0.48 | 0.696 | 0.646 | 0.565 | 0.687 | 0.563
2 | HOP-62 | 0.355 | 0.366 | 0.419 | 0.369 | 0.38 | 0.745 | 0.656 | 0.678 | 0.733 | 0.57
3 | CAL-12T | 0.398 | 0.301 | 0.426 | 0.309 | 0.271 | 0.534 | 0.554 | 0.443 | 0.386 | 0.325
4 | NCI-H520 | 0.648 | 0.65 | 0.812 | 0.664 | 0.62 | 0.138 | 0.177 | 0.138 | 0.142 | 0.146
5 | NCI-H1755 | 0.719 | 0.642 | 0.823 | 0.772 | 0.764 | 0.406 | 0.464 | 0.45 | 0.411 | 0.313
6 | NCI-H2023 | 0.511 | 0.539 | 0.516 | 0.428 | 0.427 | 0.517 | 0.537 | 0.582 | 0.489 | 0.438
7 | NCI-H2009 | 0.256 | 0.356 | 0.284 | 0.252 | 0.232 | 0.275 | 0.311 | 0.295 | 0.329 | 0.297
